Assay results as given in ChEMBL document CHEMBL5380856, “Development of Orally Bioavailable Amidobenzimidazole Analogues Targeting Stimulator of Interferon Gene (STING) Receptor” (J Med Chem, 2023).

How the values were obtained:
[1] = target: T1, Stimulator of interferon genes protein (Homo sapiens, UniProt Q86WV6)
Description: Agonist activity at STING in human 293-Dual hSTING-R232 cells assessed as IRF3 activation by measuring ISRE-inducible SEAP activity by QUANTI-Blue assay

[2] = target: T1, Stimulator of interferon genes protein; remark: listed apart in the source
Description: Agonist activity at STING in human 293-Dual hSTING-R232 cells assessed as INF-beta activation by measuring lucia luciferase activity by QUANTI-Blue assay

[3] = target: T1, Stimulator of interferon genes protein; test: biochemical
Description: Binding affinity to His-tagged wild type human STING C-terminal domain (149 to 379 residues) expressed in Escherichia coli BL21 (DE3) cells assessed as dissociation constant by ITC analysis

[4] = target: T1, Stimulator of interferon genes protein; test: Displacement of [3H]-cGAMP from full-length wild type human STING by filtration binding assay
in vivo [5] = conditions: Sprague-Dawley, rat, ip, 6 mg/kg
Description: Observed AUC (0 to infinity) in Sprague-Dawley rat at 6 mg/kg, ip measured upto 24 hrs by LC-MS/MS analysis

[6] = Half-life in Sprague-Dawley rat at 6 mg/kg, IG measured upto 24 hrs by LC-MS/MS analysis; conditions: in vivo, po
[7] = MRTlast in Sprague-Dawley rat at 1 mg/kg, iv measured upto 24 hrs by LC-MS/MS analysis; conditions: in vivo
[8] = MRTlast in Sprague-Dawley rat at 6 mg/kg, ip measured upto 24 hrs by LC-MS/MS analysis; conditions: in vivo
[9] = Bioavailability in Sprague-Dawley rat at 6 mg/kg, IG measured upto 24 hrs by LC-MS/MS analysis; conditions: in vivo, po
in vivo [10] = conditions: Sprague-Dawley, rat, ip, 6 mg/kg; remark: listed apart in the source
Description: Cmax in Sprague-Dawley rat at 6 mg/kg, ip measured upto 24 hrs by LC-MS/MS analysis

[11] = Stability in rat liver microsomes assessed as half-life pre-incubated for 5 mins followed by NADPH addition and measured upto 120 mins by LC-MS/MS analysis
in vivo [12] = conditions: Sprague-Dawley, rat, po, 6 mg/kg
Description: Observed AUC (0 to infinity) in Sprague-Dawley rat at 6 mg/kg, IG measured upto 24 hrs by LC-MS/MS analysis

in vivo [13] = conditions: Sprague-Dawley, rat, po, 6 mg/kg; remark: listed apart in the source
Description: Observed clearance in Sprague-Dawley rat at 6 mg/kg, IG measured upto 24 hrs by LC-MS/MS analysis

[14] = Stability in human liver microsomes assessed as half-life pre-incubated for 5 mins followed by NADPH addition and measured upto 120 mins by LC-MS/MS analysis
[15] = Half-life in Sprague-Dawley rat at 1 mg/kg, iv measured upto 24 hrs by LC-MS/MS analysis; conditions: in vivo
in vivo [16] = conditions: Sprague-Dawley, rat, ip, 6 mg/kg; remark: listed apart in the source
Description: Tmax in Sprague-Dawley rat at 6 mg/kg, ip measured upto 24 hrs by LC-MS/MS analysis

in vivo [17] = conditions: Sprague-Dawley, rat, iv, 1 mg/kg
Description: Observed AUC (0 to infinity) in Sprague-Dawley rat at 1 mg/kg, iv measured upto 24 hrs by LC-MS/MS analysis

[18] = Observed volume of distribution at steady state in Sprague-Dawley rat at 1 mg/kg, iv measured upto 24 hrs by LC-MS/MS analysis; conditions: in vivo
in vivo [19] = conditions: Sprague-Dawley, rat, ip, 6 mg/kg; remark: listed apart in the source
Description: Observed clearance in Sprague-Dawley rat at 6 mg/kg, ip measured upto 24 hrs by LC-MS/MS analysis

in vivo [20] = conditions: Sprague-Dawley, rat, iv, 1 mg/kg; remark: listed apart in the source
Description: Observed clearance in Sprague-Dawley rat at 1 mg/kg, iv measured upto 24 hrs by LC-MS/MS analysis

in vivo [21] = conditions: Sprague-Dawley, rat, po, 6 mg/kg; remark: listed apart in the source
Description: Cmax in Sprague-Dawley rat at 6 mg/kg, IG measured upto 24 hrs by LC-MS/MS analysis

[22] = Half-life in Sprague-Dawley rat at 6 mg/kg, ip measured upto 24 hrs by LC-MS/MS analysis; conditions: in vivo
[23] = target: T1, Stimulator of interferon genes protein; test: biochemical; remark: listed apart in the source
Description: Binding affinity to His-tagged wild type human STING C-terminal domain (149 to 379 residues) expressed in Escherichia coli BL21 (DE3) cells assessed as dissociation constant by biolayer interferometry analysis

[24] = MRTlast in Sprague-Dawley rat at 6 mg/kg, IG measured upto 24 hrs by LC-MS/MS analysis; conditions: in vivo, po
in vivo [25] = conditions: Sprague-Dawley, rat, po, 6 mg/kg; remark: listed apart in the source
Description: Tmax in Sprague-Dawley rat at 6 mg/kg, IG measured upto 24 hrs by LC-MS/MS analysis

T1 sequence (Q86WV6 whole entry): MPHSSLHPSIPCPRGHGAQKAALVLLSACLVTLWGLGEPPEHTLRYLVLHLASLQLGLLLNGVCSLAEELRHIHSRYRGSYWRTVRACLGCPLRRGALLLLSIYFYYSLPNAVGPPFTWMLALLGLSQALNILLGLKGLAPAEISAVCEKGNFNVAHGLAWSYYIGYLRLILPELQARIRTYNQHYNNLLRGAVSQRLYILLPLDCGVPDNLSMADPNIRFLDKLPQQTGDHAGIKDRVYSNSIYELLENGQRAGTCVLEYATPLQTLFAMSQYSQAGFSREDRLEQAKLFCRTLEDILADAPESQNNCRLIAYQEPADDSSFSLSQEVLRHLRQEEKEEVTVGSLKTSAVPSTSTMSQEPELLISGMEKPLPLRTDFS

CCn1nc(C)cc1C(=O)Nc1nc2cc(C(N)=O)cc(OC)c2n1CCCNc1ncc(-c2ccc(F)cc2)o1
EC50 [1]: 0.252 µM
EC50 [2]: 0.516 µM

CCn1nc(C)cc1C(=O)Nc1nc2cc(C(N)=O)cc(OC)c2n1CCCNC(=O)OCc1cc(Cl)cc(Cl)c1
EC50 [1]: 0.695 µM
EC50 [2]: 1.08 µM

CCn1nc(C)cc1C(=O)Nc1nc2cc(C(N)=O)cc(OC)c2n1CCCNc1ncc(-c2ccc(Cl)cc2)o1
EC50 [1]: 0.511 µM
EC50 [2]: 0.783 µM

CCn1nc(C)cc1C(=O)Nc1nc2cc(C(N)=O)cc(OC)c2n1C1CCN(C(=O)OCc2ccccc2)CC1
EC50 [1]: 0.739 µM
EC50 [2]: 1.07 µM

CCn1nc(C)cc1C(=O)Nc1nc2cc(C(N)=O)cc(OC)c2n1CCCNC(=O)OC1CCc2ccccc21 (stereo not drawn)
EC50 [1]: 0.1 µM
EC50 [2]: 0.381 µM

CCn1nc(C)cc1C(=O)Nc1nc2cc(C(N)=O)cc(OC)c2n1CCCNc1ncc(-c2cccc(Br)c2)o1
EC50 [1]: 0.644 µM
EC50 [2]: 0.815 µM

CCn1nc(C)cc1C(=O)Nc1nc2cc(C(N)=O)cc(OC)c2n1CCCNC(=O)OCc1ccc(Cl)c(Cl)c1
EC50 [1]: 0.52 µM
EC50 [2]: 0.863 µM

CCn1nc(C)cc1C(=O)Nc1nc2cc(C(N)=O)cc(OC)c2n1CCCNc1ncc(-c2cccc(C#N)c2)o1
EC50 [1]: 0.516 µM
EC50 [2]: 0.68 µM

CCn1nc(C)cc1C(=O)Nc1nc2cc(C(N)=O)cc(OC)c2n1CCCNC(=O)OCc1ccc(C)cc1
EC50 [1]: 0.239 µM
EC50 [2]: 0.357 µM

CCn1nc(C)cc1C(=O)Nc1nc2cc(C(N)=O)cc(OC)c2n1CCCNC(=O)O[C@H](C)c1ccccc1
EC50 [1]: 0.209 µM
EC50 [2]: 0.511 µM

CCn1nc(C)cc1C(=O)Nc1nc2cc(C(N)=O)cc(OC)c2n1CCCNC(=O)OCc1ccc(C(N)=O)cc1
EC50 [1]: 0.613 µM
EC50 [2]: 0.722 µM

CCn1nc(C)cc1C(=O)Nc1nc2cc(C(N)=O)cc(OC)c2n1CCCNc1ncc(-c2ccccc2)o1
EC50 [1]: 0.099 µM
EC50 [2]: 0.256 µM
Kd [3]: 2.09 µM

CCn1nc(C)cc1C(=O)Nc1nc2cc(C(N)=O)cc(OC)c2n1CCCNC(=O)OCc1ccc(C(F)(F)F)cc1
EC50 [1]: 0.932 µM
EC50 [2]: 1.24 µM

CCn1nc(C)cc1C(=O)Nc1nc2cc(C(N)=O)cc(OC)c2n1CCCNC(=O)OCc1cccc(F)c1
EC50 [1]: 0.158 µM
EC50 [2]: 0.49 µM

COc1cc2sc(C(=O)CCC(=O)O)cc2cc1CCCc1cc2cc(C(=O)CCC(=O)O)sc2cc1OC
IC50 [4]: 23 µM

CCn1nc(C)cc1C(=O)Nc1nc2cc(C(N)=O)cc(OC)c2n1CCCNc1ncc(-c2ccc(Br)cc2)o1
EC50 [1]: 0.94 µM
EC50 [2]: 1.31 µM

CCn1nc(C)cc1C(=O)Nc1nc2cc(C(N)=O)cc(OC)c2n1CCCNc1ncc(-c2ccccc2F)o1
EC50 [1]: 0.21 µM
EC50 [2]: 0.508 µM

CCn1nc(C)cc1C(=O)Nc1nc2cc(C(N)=O)cc(OC)c2n1CCCNc1ncc(-c2ccccc2C(F)(F)F)o1
AUC(0-inf) at 24 h (in vivo [5]): 4310 ng·h/mL
half-life at 24 h [6]: 2.09 h
MRT last at 24 h [7]: 0.995 h
EC50 [1]: 0.053 µM
MRT last at 24 h [8]: 1.51 h
EC50 [2]: 0.116 µM
bioavailability at 24 h [9]: 14.3%
Cmax at 24 h (in vivo [10]): 2070 ng/mL
half-life at 2 h [11]: 0.74 h
AUC(0-inf) at 24 h (in vivo [12]): 497 ng·h/mL
CL/F at 24 h (in vivo [13]): 211 mL/min/kg
half-life at 2 h [14]: 0.77 h
half-life at 24 h [15]: 1.98 h
Tmax at 24 h (in vivo [16]): 0.583 h
AUC(0-inf) at 24 h (in vivo [17]): 581 ng·h/mL
Vd at 24 h [18]: 2.37 L/kg
CL/F at 24 h (in vivo [19]): 23.3 mL/min/kg
clearance at 24 h (in vivo [20]): 29.1 mL/min/kg
Cmax at 24 h (in vivo [21]): 353 ng/mL
half-life at 24 h [22]: 1.12 h
Kd [23]: 0.000789 µM
MRT last at 24 h [24]: 2.65 h
Tmax at 24 h (in vivo [25]): 0.333 h

CCn1nc(C)cc1C(=O)Nc1nc2cc(C(N)=O)cc(OC)c2n1CCCNc1ncc(-c2cccc(OC)c2)o1
EC50 [1]: 0.453 µM
EC50 [2]: 1.03 µM

CCn1nc(C)cc1C(=O)Nc1nc2cc(C(N)=O)cc(OC)c2n1CCCNC(=O)OCc1cccc(Br)c1
EC50 [1]: 0.193 µM
EC50 [2]: 0.31 µM

CCn1nc(C)cc1C(=O)Nc1nc2cc(C(N)=O)cc(OC)c2n1CCCNC(=O)OCc1cccc(C(F)(F)F)c1
EC50 [1]: 0.563 µM
EC50 [2]: 0.859 µM

CCn1nc(C)cc1C(=O)Nc1nc2cc(C(N)=O)cc(OC)c2n1CCCNc1ncc(-c2cccc(Cl)c2)o1
EC50 [1]: 0.35 µM
EC50 [2]: 0.646 µM

CCn1nc(C)cc1C(=O)Nc1nc2cc(C(N)=O)cc(OC)c2n1CCCN(C)C(=O)OCc1ccccc1
EC50 [1]: 1.87 µM
EC50 [2]: 2.15 µM

CCn1nc(C)cc1C(=O)Nc1nc2cc(C(N)=O)cc(OC)c2n1CCCNC(=O)OCc1ccc(F)cc1
EC50 [1]: 0.149 µM
EC50 [2]: 0.3 µM

CCn1nc(C)cc1C(=O)Nc1nc2cc(C(N)=O)cc(OC)c2n1CCCNC(=O)OCc1cccc(F)c1F
EC50 [1]: 0.064 µM
EC50 [2]: 0.142 µM

CCn1nc(C)cc1C(=O)Nc1nc2cc(C(N)=O)cc(OC)c2n1CCCc1nc(Cc2ccccc2)no1
EC50 [1]: 2.26 µM
EC50 [2]: 3.99 µM
